Experimental data: US12492210B2, “Tricyclic compounds and their use” (HUTCHISON MEDIPHARMA LIMITED, priority 2019, dated 2025)
pIC50: −log10 of the molar value.

Key:
[1] = test system: p-RSK (Thr359) in colo205 cells; test: p-RSK (Thr359) Acumen Assay in Colo205; format: cell-based; details: Homo sapiens, COLO 205, 1 hour compound incubation, read-out: Example 19 IC50
Method: Example 19: p-RSK (Thr359) Acumen Assay in Colo205
• Phospho-p90RSK (Thr359) (D1E9) Rabbit mAb: cell signal, #8753 • Alexa Fluor® 488 donkey anti-rabbit IgG: invitrogen, #A-21206 • Propidium Iodide: Sigma, #p4170 • 4% Paraformaldehyde: SCRC, #DF021 • 10% Triton X-100: PIERCE, #28314 • 96-well plate (black with clear bottom): BD, #354640 • Acumen® eX3 (A Multilaser Microplate Cytometer For Enhanced High Content Screening): TTP LabTech 3. Acumen Assay Protocol • Seed 4000 cells in 100 μl 10% FBS/well into 96-well plate, incubate at 37° C., 5% CO2, overnight. • Dilute the compound to 3, 1, 0.33, 0.11, 0.037, 0.012, 0.004, 0.001 μM, keeping the DMSO concentration at 5%. Add 10 μl of diluted compound per well and incubate at 37° C., 5% CO2 for 1 hour. • Add 100 μl of 4% pre-warmed Paraformaldehyde (2% final), and incubate for 45 min at room temperature. • Remove paraformaldehyde solutions. Add 100 μl of ice-cold 0.1% Triton to fixed cells at room temperature for 30 min. • Wash twice with 150 μl PBS and incubate with 100 μl blocking buffer (1% BSA, in PBS) for 2˜3 hours at room temperature, seal the plate. • Wash once with PBS and incubate with 35 μl p-RSK (Thr359) (1:1000 dilution) overnight at 4° C. Seal the plate. • Wash twice with PBS and incubate for 1.5 hours at room temperature with 35 μl of Alexa Fluor® 488 donkey anti-rabbit IgG at a 1:1,000 dilution in antibody dilution buffer (0.1% BSA, in PBS). Cover plate in foil to keep out of light. • Wash twice with 150 μl PBS. Add 35 μl of 1.5 μM Propidium Iodide stock to each well to determine cell number, seal the plate. • Incubate at room temperature for 30 min. Load the plate into the Acumen Explorer and scan with the appropriate instrument settings. 4. Data Analysis
[formula] Note: • Percentagecompound well represents the positive percentage of cells treated by compound. • Percentagemin well represents the positive percentage of cells treated with 3 uM GDC0994. • Percentagemax well represents the positive percentage of cells without compounds treatment. 5. IC50 Value: determine IC50 with add-in software for Microsoft Excel, XLfit™ (version 2.0) from ID Business Solutions (Guildford, UK)

MAPK1(ERK2) enzyme = target: T1, MAPK1(ERK2) enzyme (Homo sapiens, UniProt P28482); test: Z-Lyte Kinase Assay of ERK2; format: biochemical; details: read-out: Example 18 IC50
T1 construct: purchased Invitrogen PV3313
T1 sequence (P28482 whole entry): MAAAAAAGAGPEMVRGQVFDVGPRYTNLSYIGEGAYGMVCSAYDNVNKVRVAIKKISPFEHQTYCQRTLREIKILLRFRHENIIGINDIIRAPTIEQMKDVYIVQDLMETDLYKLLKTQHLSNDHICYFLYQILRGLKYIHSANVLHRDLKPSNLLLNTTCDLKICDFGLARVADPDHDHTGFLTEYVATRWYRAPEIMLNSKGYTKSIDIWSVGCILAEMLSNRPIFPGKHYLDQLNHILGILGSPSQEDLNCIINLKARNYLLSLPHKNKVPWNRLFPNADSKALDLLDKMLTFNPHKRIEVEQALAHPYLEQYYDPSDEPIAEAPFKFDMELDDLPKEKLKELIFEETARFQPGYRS
Method: Example 18: Z-Lyte Kinase Assay of ERK2
1. Materials and Reagents:
2. Reaction Steps: Plate Map
3. Solution Preparation • 1) 1.33× Kinase Buffer: Dilute 5× Kinase Buffer to 1.33× with ddH2O • 2) 4× Test Compounds: Serially dilute the test compounds to 4 folds of the concentrations desired, keeping the DMSO concentration at 8%. The final concentrations are 1, 0.33, 0.11, 0.037, 0.012, 0.004, 0.0014, 0.00046 μM, and the final concentration of DMSO is 2%. • 3) Kinase/Peptide Mixture (P/K solution): Prepare Kinase/Peptide Mixture by diluting the kinase to 0.6 μg/ml and the Z-LYTE™ Ser/Thr3 peptide to 4 μM in 1.33× Kinase Buffer. Mix gently by pipetting. • 4) Phospho-peptide Solution (PP solution): Add 0.4 μl of Z-LYTE™ Ser/Thr3 Phospho-peptide to 99.6 μl of 1.33× Kinase Buffer. • 5) ATP Solution: Prepare ATP Solution by diluting the 10 mM of ATP in 1.33× Kinase Buffer to 100 μM. • 6) Development Solution: Dilute Development Reagent A with Development Buffer as 1:1024. 4. Reaction • 1) Kinase reaction (10 μl of Volume) • a. In a 384-well plate, add 2.5 μl of 4× test Cpds to each well except C1, C2, C3 wells Add 2.5 μl of 8% DMSO to C1, C2, C3 wells • b. Put the plate on ice • c. Add 5 μl of P/K mixture to each test Cpd wells and C1, C2 wells • d. Add 5 μl of PP Solution to C3 well • e. Add 2.5 μl of 1.33× kinase buffer to C1 and C3 wells • f. Add 2.5 μl of 4×ATP Solution to each test Cpd wells and C2 well, respectively. Shake the plate for 30 Sec and centrifuge (1500 rpm, 1 min) • g. Seal the plate to protect from the light and incubate the plate for 1 hour at RT (25-30° C.) • 2) Development reaction • a. Add 5 μl of the Development solution to all wells • b. Shake the plate for 30 sec and centrifuge (1500 rpm, 1 min) • c. Seal the plate to protect from the light and incubate the plate for 1 hour at RT (25-30° C.) • 3) Stop and read • a. Add 5 μl of the Stop reagent to all wells • b. Shake the plate for 30 sec and centrifuge (1500 rpm, 1 min) • c. Measure the value of coumarin (Ex400 nm, Em445 nm) and fluorescein (Ex400 nm, Em520 nm), respectively. 5. Data Analysis Emission Ratio(ER)=Coumarin Emission (445 nm)/Fluorescein Emission (520 nm) % Phosphorylation=1−[ER×C3520nm−C3445nm]/[(C1445nm−C3445nm)+ER×(C3520nm−C1520nm)] Inhibition rate (IR)=1−% Photest Cpd% PhoC2 6. IC50 Value: determine IC50 with add-in software for Microsoft Excel, XLfit™ (version 2.0) from ID Business Solutions (Guildford, UK)

SMILES	pIC50 [1]	pIC50 (MAPK1(ERK2) enzyme)
C[C@H](Oc1ccccc1F)c1nnc2c3cc(-c4ccnc(Nc5ccnn5C)n4)cn3ccn12 [Compound 39, (S)-4-(3-(1-(2-fluorophenoxy)ethyl)pyrrolo[1,2-a][1,2,4]triazolo[3,4-c]pyrazin-9-yl)-N-(1-methyl-1H-pyrazol-5-yl)pyrimidin-2-amine]	≥ 7.00	8.00 to 8.30
Cn1nccc1Nc1nccc(-c2cc3c4nnc(COc5ccccc5Cl)n4ccn3c2)n1 [Compound 40]	≥ 7.00	≥ 8.30
Cn1nccc1Nc1nccc(-c2cc3c4nnc(Nc5ccccc5F)n4ccn3c2)n1 [Compound 41, N-(2-fluorophenyl)-9-(2-((1-methyl-1H-pyrazol-5-yl)amino)pyrimidin-4-yl)pyrrolo[1,2-a][1,2,4]triazolo[3,4-c]pyrazin-3-amine]	< 7.00	≥ 8.30
Cc1c(-c2ccnc(Nc3ccnn3C)n2)cn2c1-c1nnc(Nc3ccccc3F)n1CCC2 [Compound 42]	< 7.00	≥ 8.30
Cn1nccc1Nc1cc(-c2cc3n(c2)CCCn2c(Nc4ccccc4F)nnc2-3)c(Cl)cn1 [Compound 43]	≥ 7.00	8.00 to 8.30
C[C@H](Oc1ccccc1F)c1nnc2n1CC(C)(C)Cn1cc(-c3ccnc(Nc4ccnn4C)n3)cc1-2 [Compound 44, (S)-4-(3-(1-(2-fluorophenoxy)ethyl)-6,6-dimethyl-6,7-dihydro-5H-pyrrolo[1,2-a][1,2,4]triazolo[3,4-c][1,4]diazepin-10-yl)-N-(1-methyl-1H-pyrazol-5-yl)pyrimidin-2-amine]	< 7.00	< 8.00
Cc1cnc(Nc2ccnn2C)nc1-c1cc2c3nnc(C4(C(F)F)CCC4)n3ccn2c1 [Compound 45]	≥ 7.00	≥ 8.30
Cn1nccc1Nc1cc(-c2cc3n(c2)CCn2c-3nnc2C2(C(F)F)CCC2)c(Cl)cn1 [Compound 46]	≥ 7.00	≥ 8.30
Cc1cnc(Nc2ccnn2C)nc1-c1cc2n(c1)[C@@H](C)Cn1c-2nnc1C1(C(F)(F)F)CCC1 [Compound 47]	≥ 7.00	≥ 8.30
Cc1cnc(Nc2ccnn2C)nc1-c1cc2n(c1)[C@H](C)Cn1c-2nnc1C1(C(F)(F)F)CCC1 [Compound 48]	< 7.00	≥ 8.30
Cn1nccc1Nc1cc(-c2cc3n(c2)CCCn2c-3nnc2C2(C(C)(F)F)CCC2)c(Cl)cn1 [Compound 49]	≥ 7.00	≥ 8.30
C[C@H]1Cn2c(nnc2C2(C(F)(F)F)CCC2)-c2cc(-c3cc(Nc4ccnn4C)ncc3Cl)cn21 [Compound 50]	< 7.00	≥ 8.30
Cn1nccc1Nc1cc(-c2cc3n(c2)CC2(CC2)Cn2c-3nnc2C2(C(F)F)CCC2)c(Cl)cn1 [Compound 51]	≥ 7.00	≥ 8.30
CC1CCn2c(nnc2C2(C(F)(F)F)CCC2)-c2cc(-c3cc(Nc4ccnn4C)ncc3Cl)cn21 (stereo not shown) [Compound 52]	≥ 7.00	≥ 8.30
Cn1nccc1Nc1cc(-c2cc3n(c2)CCCn2c-3nnc2N2CCc3ccccc32)c(Cl)cn1 [Compound 53, 5-Chloro-4-(3-(indolin-1-yl)-6,7-dihydro-5H-pyrrolo[1,2-a][1,2,4]triazolo[3,4-c][1,4]diazepin-10-yl)-N-(1-methyl-1H-pyrazol-5-yl)pyridin-2-amine]	< 7.00	8.00 to 8.30
Cn1nccc1Nc1cc(-c2cc3n(c2)CCCn2c-3nnc2N2CCCc3ccccc32)c(Cl)cn1 [Compound 54]	≥ 7.00	8.00 to 8.30

SMILES	pIC50 [1]	pIC50 (MAPK1(ERK2) enzyme)
Cn1nccc1Nc1cc(-c2cc3n(c2)CC2(CCC2)Cn2c-3nnc2C2(C(F)(F)F)CCC2)c(Cl)cn1 [Compound 55, 5-chloro-N-(1-methyl-1H-pyrazol-5-yl)-4-(3′-(1-(trifluoromethyl)cyclobutyl)-5′H,7′H-spiro[cyclobutane-1,6′-pyrrolo[1,2-a][1,2,4]triazolo[3,4-c][1,4]diazepin]-10′-yl)pyridin-2-amine]	≥ 7.00	8.00 to 8.30
Cn1nccc1Nc1cc(-c2cc3n(c2)C[C@H](CF)n2c-3nnc2C2(F)CC2)c(Cl)cn1 [Compound 56]	≥ 7.00	≥ 8.30
CCC(F)(F)c1nnc2n1[C@@H](CF)Cn1cc(-c3cc(Nc4ccnn4C)ncc3C)cc1-2 [Compound 57]	< 7.00	≥ 8.30
Cn1nccc1Nc1cc(-c2cc3n(c2)CCn2c-3nnc2C(F)(F)C(F)F)c(Cl)cn1 [Compound 58]	≥ 7.00	≥ 8.30
Cn1nccc1Nc1cc(-c2cc3n(c2)CCCn2c-3nnc2C2(C(F)F)CC2)c(Cl)cn1 [Compound 59]	≥ 7.00	≥ 8.30
Cc1cnc(Nc2ccnn2C)cc1-c1cc2n(c1)CC(C)Cn1c-2nnc1C(F)(F)C(F)F (stereo not shown) [Compound 60]	≥ 7.00	≥ 8.30
CCC(F)(F)c1nnc2n1[C@@H](CF)Cn1cc(-c3cc(Nc4ccnn4C)ncc3Cl)cc1-2 [Compound 61]	≥ 7.00	≥ 8.30
Cc1cnc(Nc2ccnn2C)cc1-c1cc2n(c1)C[C@H](CF)n1c-2nnc1C(F)(F)C(F)F [Compound 62]	≥ 7.00	≥ 8.30
Cn1nccc1Nc1cc(-c2cc3n(c2)C[C@H](CF)n2c-3nnc2C(F)(F)C(F)F)c(F)cn1 [Compound 63]	≥ 7.00	≥ 8.30
COC1(c2nnc3n2[C@@H](CF)Cn2cc(-c4cc(Nc5ccnn5C)ncc4Cl)cc2-3)CCC1 [Compound 64]	< 7.00	≥ 8.30
Cc1cnc(Nc2ccnn2C)cc1-c1cc2n(c1)[C@@H]1CC[C@@H](C1)n1c-2nnc1C(F)(F)C(F)F [Compound 65]	≥ 7.00	≥ 8.30
Cc1cnc(Nc2ccnn2C)cc1-c1cc2n(c1)CC1(CC1)Cn1c-2nnc1C(F)(F)C(F)F [Compound 66]	≥ 7.00	≥ 8.30
Cc1cnc(Nc2ccnn2C)cc1-c1cc2n(c1)[C@H]1CC[C@H](C1)n1c-2nnc1C(F)(F)C(F)F [Compound 67]	≥ 7.00	≥ 8.30
Cc1cnc(Nc2ccnn2C)cc1-c1cc2n(c1)CCn1c-2nnc1C(F)(F)c1ccccc1F [Compound 68]	< 7.00	8.00 to 8.30
C[C@H]1Cn2cc(-c3ccnc(Nc4ccnn4C)c3)cc2-c2nnc(C(F)(F)c3ccccc3F)n21 [Compound 69]	< 7.00	≥ 8.30
Cc1cnc(Nc2ccnn2C)nc1-c1cc2n(c1)CCn1c-2nnc1C(F)(F)c1ccccc1F [Compound 70]	≥ 7.00	≥ 8.30
